Results reported in US11123354B2, “Method for the treatment of osteoarthritis” (ABIOGEN PHARMA S.P.A., priority 2016, dated 2021).

What was measured:
OA rats (MIA model) = assay: Difference in edema size between right and left knees, MIA-induced OA rats, weekly intra-articular treatment; assay type: in vivo, Sprague Dawley rats; settings: 4 weekly i.a. administrations
Source text: (§1) As an experimental model of OA induction, one involving the intra-articular administration of MIA (monosodium iodoacetate) was used.
The IA injection of MIA creates a model of acute inflammation that allows the study of cartilage degradation and joint pain.
(§2) The rats were anesthetized by a gaseous mixture of isoflurane and oxygen, and maintained in a supine position. Once the infrapatellar ligament was identified by touch, a single intra-articular injection of monosodium iodoacetate (MIA) was performed in the right knee, after having shaved the skin of the area, while keeping the joint slightly flexed. The amount of MIA injected was equal to 1 mg dissolved in 50 μl of saline solution, having a pH of about 4.5, as measured just before administration. The joint of the left knee was instead injected with 50 μl of saline solution alone, and this represented the internal control.
(§3) The treatment involved 4 weekly administrations of sodium chlodronate, followed by one week of follow-up.
(§4) The study included 8 treatment groups, each consisting of 10 male Sprague Dawley rats, specifically five treatment groups consisting of OA rats, on which the chlodronate doses of 2, 10, 20, 30, and 40 mg/ml, corresponding to 0.1, 0.5, 1, 1.5, and 2 mg/rat, were tested, and the remaining three groups represented by untreated OA rats, operated but untreated Sham rats, and rats administered only with placebo at pH 4.5.
(§5) During the treatment period, the animals were regularly checked in relation to the increase in body mass, food intake, and general health conditions. Clinical and hematological analyses were performed at the end of the study. The difference between the size of the edema in the two inflamed knees for all the observation groups, the final serum concentration of CTX-I (C-telopeptide of type I collagen), as a marker of bone turnover, and the final serum concentration of CTX-II (C-telopeptide of type II collagen), as a marker of cartilage turnover were investigated.
The measurement of the difference in size of the right and left knee edema (indicated with D and expressed in mm) was performed on anesthetized rats, by using a digital caliper (Digi-max slide caliper W/LCD readout Sigma Aldrich).

[1] = tested on: CTX-II (C-telopeptide of type II collagen); assay: CTX-II final serum concentration, MIA-induced OA rats, weekly treatment; assay type: in vivo, Sprague Dawley rats
Protocol: as §1, §2, §3, §4, §5
Considering that CTX-II (C-telopeptide of type II collagen) is a cartilage turnover marker and its concentration levels are proportional to the […], the measurement of CTX-II final serum concentration value is a measure of the treatment efficacy.

[2] = tested on: patients with osteoarthritis of the knee; settings: 20 patients, IA 0.9 mg on days 1, 3, 7, 10, 14 and 21; cited from earlier work
Sprague Dawley rats = assay: Local tolerability of repeated intra-articular injections; assay type: in vivo
Protocol: With the aim to determine also the maximum dosages of chlodronate administrable in a single intra-articular injection, the local tolerability of intra-articular injections of sodium chlodronate, after repeated administration in the right knee of male and female Sprague Dawley rats, was investigated in this study.
Groups consisting of 5 male rats and 5 female rats each were subjected to intra-articular administration of aqueous solutions comprising 4, 14 and 40 mg/ml of sodium chlodronate (corresponding to dosages of 0.2, 0.7, and 2 mg/rat).
Each animal received a total of 12 intra-articular injections of chlodronate or placebo, administered as 3 injections per week (on Monday, Wednesday, and Friday) for 4 consecutive weeks. For the high dose group and the control group, the relative control groups with the same numerosity as the main groups were also provided.
During the treatment period, the animals were regularly checked in relation to the increase in body mass, food intake, and general health conditions.
At the end of the study, hematological analyses, chemical-clinical analyses, urino-analysis, and necropsy were performed.

[3] = tested on: COMP (Cartilage Oligomeric Matrix Protein); assay: COMP final serum concentration, MIA-induced OA rats, weekly treatment; assay type: in vivo, Sprague Dawley rats
Protocol: as §1, §2, §3, §4
Considering that the presence of high concentrations of COMP in serum is an indication of the progression of osteoarthritic disease, the measurement of COMP (Cartilage Oligomeric Matrix Protein) final serum concentration is a measure of treatment efficacy.
In fact, COMP seems to play a fundamental role in the formation and structure of articular cartilage, as it has a regulatory function in assembling type II collagen fibers and, together with other matrix proteins, stabilizes the network of collagen fibers. During osteoarthritis, a greater amount of this protein was found in the blood, therefore a higher concentration of COMP in the serum corresponds to a more advanced stage of osteoarthritis degeneration.

[4] = pH, osmolality and density of unitary dosage form aqueous solutions; assay type: physicochemical; settings: aqueous solution
Protocol: Osmolality values were determined according to USP, chapter […] under the heading “Osmolality and Osmolarity”.
Certain compositions of the invention were prepared in unitary dosage form, in the form of an aqueous solution, for weekly, biweekly or monthly administration, comprising sodium chlodronate in tetrahydrate form, whose quali-quantitative compositions and pH, osmolality, and density values, are shown in Table 8 below.
As it is apparent from the table, all the compositions prepared had particularly high osmolality values. Osmolalities were determined by GONOTEC Osmometer, OSMOMAT 3000-D model, serial number 3000150264 according to USP, chapter 785 under the title “Osmolality and Osmolarity”.

[5] = 4, 14 and 40 mg/ml, 12 i.a. injections (3 per week, 4 weeks)
[6] = repeated intra-articular administration, rats
[7] = 5.00 mg sodium chlodronate per unitary dosage form (1 ml)
[8] = 10.00 mg sodium chlodronate per unitary dosage form (1 ml)
[9] = 20.00 mg sodium chlodronate per unitary dosage form (1 ml)
[10] = 30.00 mg sodium chlodronate per unitary dosage form (1 ml)
[11] = 40.00 mg sodium chlodronate per unitary dosage form (1 ml)

In the case of `O=P([O-])(O)C(Cl)(Cl)P(=O)([O-])O.[Na+].[Na+]` [Sodium Chlodronate, sodium chlodronate], the “D, Mean Value (mm) ± SEM (difference in size of right and left knee edema)” value (OA rats (MIA model); 2 mg/ml (0.1 mg/rat)) is reported as 0.37 ± 0.067 mm, the “D, Mean Value (mm) ± SEM (difference in size of right and left knee edema)” value (OA rats (MIA model); 10 mg/ml (0.5 mg/rat)) is reported as 0.28 ± 0.063 mm and the “D, Mean Value (mm) ± SEM (difference in size of right and left knee edema)” value (OA rats (MIA model); 20 mg/ml (1 mg/rat)) is reported as 0.27 ± 0.047 mm. For the same compound, the “D, Mean Value (mm) ± SEM (difference in size of right and left knee edema)” value (OA rats (MIA model); 30 mg/ml (1.5 mg/rat)) was 0.11 ± 0.043 mm, the “D, Mean Value (mm) ± SEM (difference in size of right and left knee edema)” value (OA rats (MIA model); 40 mg/ml (2 mg/rat)) was 0.28 ± 0.033 mm and the “CTX-II Value” ([1]; 2 mg/mL weekly i.a.) was 6.84 pg/mL. The “CTX-II Value” ([1]; 10 mg/mL weekly i.a.) was 6.48 pg/mL, the “CTX-II Value” ([1]; 20 mg/mL weekly i.a.) was 5.93 pg/mL and the “CTX-II Value” ([1]; 30 mg/mL weekly i.a.) was 5.67 pg/mL. For the same compound, the “CTX-II Value” ([1]; 40 mg/mL weekly i.a.) was 5.73 pg/mL, the “effect on pain symptoms (spontaneous pain and pain in movement)” value [2] was “marked positive effect” and the “hematological analyses with differential leucocyte count and urinary analyses” value (Sprague Dawley rats; [5]) was “no alterations due to the treatment”. For the same compound, the necropsy examination (Sprague Dawley rats; [5]) was “No abnormalities”, the “body weight and food consumption” value (Sprague Dawley rats; 4, 14 and 40 mg/ml, 12 i.a. injections (3 per week, 4 weeks), all animals) was “normal” and the “mortality, behavioral or clinical changes related to the treatment” value (Sprague Dawley rats; 4, 14 and 40 mg/ml, 12 i.a. injections (3 per week, 4 weeks), male and female rats) was “neither mortality nor behavioral or clinical changes”. For the same compound, the “renal effect / electrolyte serum concentration” value (Sprague Dawley rats; females, highest dose (40 mg/ml, 2 mg/rat), 12 i.a. injections) was “slight renal suffering with an increase in electrolyte serum concentration”, the “ALP and ALT values in serum (initial hepatic suffering)” value (Sprague Dawley rats; males, highest dose (40 mg/ml, 2 mg/rat), 12 i.a. injections) was “significant increase” and the “Maximum Tolerated Dose (MTD)” value (Sprague Dawley rats; [6]) was 40 mg/mL. For the same compound, the “NOAEL dose (No Observed Adverse Effect Level)” value (Sprague Dawley rats; [6]) was 14 mg/mL, the “COMP Value” ([3]; 2 mg/mL weekly i.a.) was 5.46 ng/mL and the “COMP Value” ([3]; 10 mg/mL weekly i.a.) was 5.52 ng/mL. The “COMP Value” ([3]; 20 mg/mL weekly i.a.) was 5.24 ng/mL, the “COMP Value” ([3]; 30 mg/mL weekly i.a.) was 4.9 ng/mL and the “COMP Value” ([3]; 40 mg/mL weekly i.a.) was 3.52 ng/mL. The “Density” value [4, 7] was 1.014 g/mL, the “Osmolality (mOsm/Kg)” value [4, 7] was 395 mOsm/Kg and the pH [4, 7] was 4.6. The “Density” value [4, 8] was 1.016 g/mL, the “Osmolality (mOsm/Kg)” value [4, 8] was 400 mOsm/Kg and the pH [4, 8] was 4.5. The “Density” value [4, 9] was 1.021 g/mL, the “Osmolality (mOsm/Kg)” value [4, 9] was 388 mOsm/Kg and the pH [4, 9] was 4.4. For the same compound, the “Density” value [4, 10] was 1.027 g/mL, the “Osmolality (mOsm/Kg)” value [4, 10] was 408 mOsm/Kg and the pH [4, 10] was 4.4. The “Density” value [4, 11] was 1.032 g/mL, the “Osmolality (mOsm/Kg)” value [4, 11] was 413 mOsm/Kg and the pH [4, 11] was 4.5.
